Read-outs that look alike come from different tables or passages of the source.
Columns and labels:
[1] = target: T1, Sigma receptor (Cavia porcellus, UniProt Q60492); assay: Sigma Receptor Binding Assay; format: guinea pig (male Hartley), brain membranes
T1 construct: Brain membranes were prepared by the method of Tam; from tissue; host or cells: guinea pig whole brain membranes
Protocol: Male Hartley guinea pigs (250-300 g, Charles River) were sacrificed by decapitation. […] Whole brains were homogenized (20 sec.) in 10 vol (wt/vol) of ice-cold 0.34 M sucrose with a Brinkmann Polytron (setting 8). The homogenate was centrifuged at 920×g for 10 min. The supernatant was centrifuged at 47,000×g for 20 min. The resulting membrane pellet was resuspended in 10 vol (original wt/vol) of 50 mM Tris HCl (pH 7.4) and incubated at 37° C. for 45 min to degrade and dissociate bound endogenous ligands. The membranes were then centrifuged at 47,000×g for 20 min and resuspended in 50 mM Tris HCl (50 mL per brain).
After 45 rain of incubation at room temperature, samples were filtered rapidly through Whatman GF/C glass filters under negative pressure, and washed 3 times with ice-cold Tris buffer (5 mL).
IC50 s were calculated from log-logit plots. Apparent Ki s were calculated from the equation, Ki =IC50 /[1+(L/Kd)], where L is the concentration of radioligand and Kd is its dissociation constant.

[2] = target: T2, Dopamine (D-2) receptor (Cavia porcellus, UniProt H0VE83); assay: Dopamine Receptor Binding; format: guinea pig, striatum membranes
T2 construct: Membranes were prepared from guinea pig striatum; from tissue; host or cells: guinea pig striatum membranes
T2 sequence (H0VE83 1-446): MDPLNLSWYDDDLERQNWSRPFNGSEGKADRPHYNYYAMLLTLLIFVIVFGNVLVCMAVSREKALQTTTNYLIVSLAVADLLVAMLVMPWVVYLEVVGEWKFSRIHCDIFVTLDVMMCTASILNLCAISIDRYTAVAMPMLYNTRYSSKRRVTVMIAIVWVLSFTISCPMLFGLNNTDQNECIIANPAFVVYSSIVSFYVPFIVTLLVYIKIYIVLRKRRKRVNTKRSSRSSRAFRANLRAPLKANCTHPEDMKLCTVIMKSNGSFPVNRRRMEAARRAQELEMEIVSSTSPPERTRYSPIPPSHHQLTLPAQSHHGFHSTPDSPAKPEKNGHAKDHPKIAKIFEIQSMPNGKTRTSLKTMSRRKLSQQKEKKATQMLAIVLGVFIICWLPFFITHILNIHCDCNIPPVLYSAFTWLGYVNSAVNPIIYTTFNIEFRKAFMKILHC
Protocol: Membranes were prepared from guinea pig striatum by the method described for sigma receptor binding. The membranes were then resuspended in 50 mM Tris HCl (9 mL per brain).
Nonspecific binding was measured in the presence of 100 nM (+)-butaclamol After 15 min of incubation at 37° C. samples were filtered rapidly through Whatman GF/C glass filters under negative pressure, and washed three times with ice-cold binding buffer (5 mL).

[3] = 0.15 nM [3H]spiperone, guinea pig striatum, pH 7.7, 15 min 37° C., read-out: Receptor Binding Affinity Dopamine (D-2) (Ki class)
[4] = 1 nM (+)-[3H]SKF 10,047, guinea pig brain membranes, pH 7.4, 45 min room temperature, read-out: Receptor Binding Affinity Sigma (Ki class)

T1 sequence (Q60492 whole entry): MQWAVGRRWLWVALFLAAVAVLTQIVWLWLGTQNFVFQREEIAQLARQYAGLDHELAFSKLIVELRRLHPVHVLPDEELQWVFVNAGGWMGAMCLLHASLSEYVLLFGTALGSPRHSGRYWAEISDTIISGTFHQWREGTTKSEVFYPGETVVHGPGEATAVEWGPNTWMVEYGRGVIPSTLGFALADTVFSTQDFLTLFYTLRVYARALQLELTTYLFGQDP

SMILES	Ki [1]	Ki [2, 3]	Ki [1, 4]	Ki [2]
O=C1C2CCCCC2C(=O)N1CC1(c2cccc(C(F)(F)F)c2)CCN(CCc2ccccc2)CC1 (stereo not drawn) [Example 126]	0.001 to 0.03 µM	> 0.5 µM	–	–
O=C1[C@H]2CCCC[C@H]2C(=O)N1C1CCN(Cc2ccccc2)CC1 [Example 12]	–	> 0.5 µM	0.001 to 0.03 µM	–
CCCC1C2c3ccccc3C=CC2C(=O)N1CCC1CCN(CCc2ccccc2)CC1 (stereo not drawn) [Example 86]	–	0.101 to 0.5 µM	0.101 to 0.5 µM	–
O=C1c2ccccc2C(=O)N1CC1CCN(Cc2cccc(F)c2)CC1 [Example 35]	–	> 0.5 µM	0.031 to 0.1 µM	–
O=C1C2C3C=CC(C4CC34)C2C(=O)N1CC1CCN(CCc2ccccc2)CC1 (stereo not drawn) [Example 69]	–	> 0.5 µM	0.001 to 0.03 µM	–
O=C1[C@H]2CCCC[C@H]2C(=O)N1CCC1=CCN(CCc2ccccc2)CC1 [Example 120]	–	> 0.5 µM	0.001 to 0.03 µM	–
O=C1[C@H]2CCCC[C@H]2C(=O)N1CC1CCN(Cc2cccc(C(F)(F)F)c2)CC1 [Example 18]	–	> 0.5 µM	0.031 to 0.1 µM	–
O=C1C2C3C=CC(C4CCC34)C2C(=O)N1CC1CCN(CCc2ccccc2)CC1 (stereo not drawn) [Example 59]	–	> 0.5 µM	0.031 to 0.1 µM	–
O=C1[C@H]2CCCC[C@H]2C(=O)N1CC1CCN(CCc2ccc(O)cc2)CC1 [Example 19]	–	0.101 to 0.5 µM	0.101 to 0.5 µM	–
O=C1[C@H]2CC=CC[C@H]2C(=O)N1CC1CCN(CCc2ccccc2)CC1 [Example 1, 2-[1-(2-Phenylethyl)-4-piperidinylmethyl]-cis-3a; 4,7,7a-tetrahydro-1H-isoindole-1,3(2H)-dione]	–	> 0.5 µM	0.031 to 0.1 µM	–
CN(C)c1ccc(CCN2CCC(CN3C(=O)[C@H]4CCCC[C@H]4C3=O)CC2)cc1 [Example 28]	–	> 0.5 µM	0.001 to 0.03 µM	–
CC12CCCCC1(C)C(=O)N(CC1CCN(CCc3ccccc3)CC1)C2=O (stereo not drawn) [Example 65]	–	0.101 to 0.5 µM	0.031 to 0.1 µM	–
O=C1c2ccccc2C(O)N1CC1CCN(CCc2ccccc2)CC1 (stereo not drawn) [Example 7, 2,3-Dihydro-3-hydroxy-2-[[1-(2-phenylethyl]-4-piperidinyl]methyl]-1H-isoindol-1-one]	–	> 0.5 µM	0.101 to 0.5 µM	–
O=C1[C@H]2CCCC[C@H]2C(=O)N1CC1CCN(CCc2c[nH]c3ccccc23)CC1 [Example 32]	–	–	0.101 to 0.5 µM	> 0.5 µM
O=C1c2ccccc2C(=O)N1CC1CCN(Cc2ccc(F)cc2)CC1 [Example 36]	–	> 0.5 µM	0.001 to 0.03 µM	–
O=C1C2C3C=CC(CCC3)C2C(=O)N1CC1CCN(CCc2ccccc2)CC1 (stereo not drawn) [Example 62]	–	> 0.5 µM	0.001 to 0.03 µM	–
O=C1C2C3CCC(C4CCC43)C2C(=O)N1CC1CCN(CCc2ccccc2)CC1 (stereo not drawn) [Example 72]	–	0.101 to 0.5 µM	0.001 to 0.03 µM	–
CC1C2=C(CCCC2)C(=O)N1CC1CCN(CCc2ccccc2)CC1 (stereo not drawn) [Example 70, 2,3,4,5,6,7, -hexahydro-2-[[1-(2-phenylethyl)-4-piperidinyl]methyl]-3-methyl-1H-isoindol-1-one]	–	0.101 to 0.5 µM	0.101 to 0.5 µM	–
O=C1[C@H]2CCCC[C@H]2C(=O)N1CC1CCN(Cc2ccccc2)CC1 [Example 14]	–	> 0.5 µM	0.001 to 0.03 µM	–
O=C1c2ccccc2C(=O)N1CCC1=CCN(CCc2ccccc2)CC1 [Example 115]	–	> 0.5 µM	0.001 to 0.03 µM	–
CC1(O)C2CCCCC2C(=O)N1CC1CCN(CCc2ccccc2)CC1 (stereo not drawn) [Example 8, cis-Octahydro-3-hydroxy-3-methyl-2-[[1-(2-phenylethyl)4-piperidinyl]methyl]-1H-isoindol-1-one]	–	> 0.5 µM	0.101 to 0.5 µM	–
O=C1C2=C(CCCC2)C(=O)N1CC1CCN(CCc2ccccc2)CC1 [Example 56]	–	> 0.5 µM	0.001 to 0.03 µM	–
O=C1C2C3C=CC(CCC3)C2C(=O)N1CC1(O)CCN(CCc2ccccc2)CC1 (stereo not drawn) [Example 75]	–	> 0.5 µM	0.001 to 0.03 µM	–
O=C1[C@H]2CCCC[C@H]2C(=O)N1CC1(c2cccc(Cl)c2)CCN(CCc2ccccc2)CC1 [Example 123]	0.001 to 0.03 µM	> 0.5 µM	–	–

Source: US5480892A, “(N-phthalimidoalkyl)piperidines” (The Du Pont Merck Pharmaceutical Company, priority 1994, dated 1996)
